How the values were obtained:
PSMA− PC-3 cells = assay: Cell binding and internalization in PC-3 cells; type: cell-based, human; conditions: 25 nM, 45 min
Method: (§1) Internalization experiments were performed as previously described. Briefly, 10^5 LNCaP or PC-3 cells were seeded in poly-L-lysine-coated 24-well cell culture plates 24 h before incubation. After washing with PBS, the cells were incubated with the radiolabeled compounds ^68Ga]6 or ^68Ga]7 (25 nM final concentration) for 45 min at 37°C and at 4°C, respectively. To determine specific cellular uptake, cells were blocked with 2-(phosphonomethyl)-pentanedioic acid (PMPA, Axxora, Loerrach, Germany) to a final concentration of 100 μM. Cellular uptake was terminated by washing four times with 1 mL of ice-cold PBS. To remove surface-bound radioactivity, cells were incubated twice with 0.5 mL glycine-HCl in PBS (50 mM, pH = 2.8) for 5 min. The cells were washed with 1 mL of ice-cold PBS and lysed using 0.3 N NaOH (0.5 mL). The surface-bound and the internalized fractions were measured in a gamma counter.

[1] = Radiochemical stability in human serum and PBS; type: in vitro ADME; conditions: 2 h incubation at 37°C
Method: (§2) The radiochemical stability was analyzed in both phosphate-buffered saline (PBS) and human serum. After 2 h of incubation at 37°C, an equal volume of CH3CN was added to the samples to precipitate serum proteins. Subsequently, the samples were centrifuged for 5 min at 13,000 rpm. Aliquots of the supernatant and the PBS sample were analyzed via RP-HPLC. In addition, serum samples were run on a Superdex 75 GL 5/150 gel filtration column (GE Healthcare, Munich, Germany) to analyze potential protein binding (PBS pH 7 as eluent).

LNCaP cells = assay: Cell surface retention (efflux); type: cell-based, human; conditions: 2-PMPA added to avoid rebinding, compared to monomer
Method: The determination of cell surface retention was performed in accordance to a previously described experiment. Briefly, 5 × 10^6 LNCaP cells in a 320-μL RPMI 1640 medium were incubated with ^68Ga]6 or ^68Ga]7 (25 nM final concentration), respectively, for 45 min at 37°C. Cells were washed three times and resuspended in the RPMI 1640 medium (320 μL); samples were taken as a control for total cell-associated activity (cell surface bound and internalized). Subsequently, 0.5 μL of a 2-PMPA solution (100 mmol/L in DMSO) was added to avoid rebinding and to enhance the competitive pressure on releasing the radioactivity from the cell surface. At indicated time points, 10-μL samples were taken and transferred on top of a 400-μL microcentrifuge tube containing 350 μL of a 75:25 mixture of silicon oil (density 1.05; Aldrich), and mineral oil (density 0.872; Acros, Thermo Fisher Scientific). Subsequently, the tubes were centrifuged at 12,000 rpm for 2 min to separate cellular radioactivity and radioactivity solved in the medium. After freezing in liquid nitrogen, the bottom tips containing the cell pellet were cut off. The cell pellets and the medium were measured in a gamma counter to determine cellular uptake
(1) %uptake=100×cpminpellet/cpminpellet+cpminsupernatant

LNCaP tumor xenograft = assay: Dynamic microPET in mice bearing LNCaP tumor xenografts; type: in vivo; conditions: L-isomer versus D-isomer
Method: For the microPET studies, 10 to 25 MBq of either [^68Ga]6 or [^68Ga]7 in a volume of 0.15 mL (approximately 0.5 nmol) was injected via a lateral tail vein into mice bearing LNCaP tumor xenografts. The anesthetized animals (2% sevoflurane, Abbott, Wiesbaden, Germany) were placed in prone position into an Inveon small animal PET scanner (Siemens, Knoxville, TN, USA) to perform a 50-min dynamic microPET scan starting at 1 min post-injection followed by a 20-min static scan. All animal experiments complied with the current laws of the Federal Republic of Germany.

PSMA+ LNCaP cells = assay: Cell binding and internalization in LNCaP cells; type: cell-based, human
Method: as §1

PSMA− PC-3 tumor = assay: Biodistribution in PC-3 tumor-bearing mice; type: in vivo, BALB/c nu/nu mice; conditions: 1 h post-injection; PSMA− PC-3 tumor-bearing mice
Method: Male BALB/c nu/nu mice of 7 to 8 weeks old (Charles River Laboratories, Wilmington, MA, USA) were subcutaneously inoculated into the right trunk with 5 × 10^6 cells of either LNCaP or PC-3 (both in 50% Matrigel; Becton Dickinson, Heidelberg, Germany). The tumors were allowed to grow for 3 to 4 weeks until approximately 1 cm^3 in size. The ^68Ga-radiolabeled compounds were injected into a tail vein (1 to 2 MBq/mouse; 0.1 to 0.2 nmol). […] Organs of interest were dissected, blotted dry, and weighed. The radioactivity was measured using a gamma counter and calculated as percentage injected dose per gram (% ID/g).

LNCaP tumor xenografts = assay: Biodistribution in mice bearing LNCaP tumor xenografts; type: in vivo, BALB/c nu/nu mice; conditions: 1 h post-injection
Method: Male BALB/c nu/nu mice of 7 to 8 weeks old (Charles River Laboratories, Wilmington, MA, USA) were subcutaneously inoculated into the right trunk with 5 × 10^6 cells of either LNCaP or PC-3 (both in 50% Matrigel; Becton Dickinson, Heidelberg, Germany). The tumors were allowed to grow for 3 to 4 weeks until approximately 1 cm^3 in size. The ^68Ga-radiolabeled compounds were injected into a tail vein (1 to 2 MBq/mouse; 0.1 to 0.2 nmol). At 1 h after injection, the animals were sacrificed. Organs of interest were dissected, blotted dry, and weighed. The radioactivity was measured using a gamma counter and calculated as percentage injected dose per gram (% ID/g).

apo-transferrin = apo-transferrin (Homo sapiens, UniProt P02787); assay: Complex stability against human transferrin / protein binding (size exclusion chromatography); type: in vitro ADME; conditions: after incubation in human serum or in the presence of apo-transferrin; 2 h, 37°C
Method: as §2, with “eluent). To analyze the complex stability against human transferrin, a 400-μL aliquot was added to 250 μg of apo-transferrin in PBS at pH 7 and incubated at 37°C (water bath) for 2 h. The complex stability was determined using a Superdex 75 GL 5/150 short column with PBS pH 7 as eluent.” for “eluent).”

[2] = i.v. tail vein, 0.1 to 0.2 nmol

Sequence of apo-transferrin (P02787 20-698): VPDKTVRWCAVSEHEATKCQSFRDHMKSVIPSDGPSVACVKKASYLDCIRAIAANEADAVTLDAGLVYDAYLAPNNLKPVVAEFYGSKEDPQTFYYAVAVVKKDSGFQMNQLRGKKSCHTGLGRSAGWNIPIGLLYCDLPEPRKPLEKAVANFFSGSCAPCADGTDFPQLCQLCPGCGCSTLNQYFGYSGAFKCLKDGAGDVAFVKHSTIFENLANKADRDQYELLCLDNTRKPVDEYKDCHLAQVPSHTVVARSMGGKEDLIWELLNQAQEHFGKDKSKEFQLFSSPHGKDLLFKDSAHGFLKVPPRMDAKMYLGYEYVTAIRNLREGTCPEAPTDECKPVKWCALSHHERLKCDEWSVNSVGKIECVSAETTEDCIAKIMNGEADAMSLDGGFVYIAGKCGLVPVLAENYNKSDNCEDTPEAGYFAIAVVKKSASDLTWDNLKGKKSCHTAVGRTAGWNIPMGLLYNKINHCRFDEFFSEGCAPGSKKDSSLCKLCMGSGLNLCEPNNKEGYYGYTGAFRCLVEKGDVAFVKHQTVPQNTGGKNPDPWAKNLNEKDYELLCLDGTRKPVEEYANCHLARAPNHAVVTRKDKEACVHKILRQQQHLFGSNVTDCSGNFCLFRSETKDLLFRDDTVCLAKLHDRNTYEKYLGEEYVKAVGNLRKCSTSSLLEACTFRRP

O=C(O)CC[C@H](NC(=O)N[C@@H](CCCCNC(=O)CCCCCNC(=O)CCc1ccc(O)c(CN(CCN(CC(=O)O)Cc2cc(CCC(=O)NCCCCCC(=O)NCCCC[C@H](NC(=O)N[C@@H](CCC(=O)O)C(=O)O)C(=O)O)ccc2O)CC(=O)O)c1)C(=O)O)C(=O)O [[^68Ga]7, metal not drawn]
Binding to PSMA− PC-3 cells (PSMA− PC-3 cells): no binding
Intact compound by HPLC analysis [1]: 99%
Cell surface retention (efflux experiment) (LNCaP cells): prolonged cell surface retention
Tumor time-activity behaviour in dynamic PET (LNCaP tumor xenograft): accumulation in the tumor
Internalized fraction (PSMA+ LNCaP cells; 25 nM, 45 min): approximately 25%
Cellular uptake (PSMA+ LNCaP cells; 25 nM, 45 min, percentage of applied radioactivity bound to 10^6 cells): 40.04 ± 6.09%
Uptake in the presence of 2-PMPA (PSMA+ LNCaP cells; 100 μM 2-PMPA): blocked
Organ distribution, PC-3 tumor (PSMA− PC-3 tumor): 0.93 ± 0.53 % ID/g
Enhanced tumor uptake of dimer versus monomer (factor) (LNCaP tumor xenografts; LNCaP tumor): approximately 1.7
Tumor-to-blood ratio (T/B) (LNCaP tumor xenografts; LNCaP tumor): 26.5
Kidney uptake after co-injection of PMPA (LNCaP tumor xenografts; blocked with 2 mg/kg 2-PMPA): 8.29 ± 0.83 % ID/g
Spleen uptake after blocking (LNCaP tumor xenografts; blocked with 2 mg/kg 2-PMPA): 0.67 ± 0.11 % ID/g
Organ distribution, Blood (LNCaP tumor xenografts; [2]): 0.31 ± 0.03 % ID/g
Organ distribution, Brain (LNCaP tumor xenografts; [2]): 0.17 ± 0.01 % ID/g
Organ distribution, Heart (LNCaP tumor xenografts; [2]): 0.90 ± 0.12 % ID/g
Organ distribution, Intestine (LNCaP tumor xenografts; [2]): 0.57 ± 0.14 % ID/g
Organ distribution, Kidney (LNCaP tumor xenografts; [2]): 133.43 ± 18.88 % ID/g
Organ distribution, Liver (LNCaP tumor xenografts; [2]): 1.29 ± 0.11 % ID/g
Organ distribution, Lung (LNCaP tumor xenografts; [2]): 2.25 ± 0.24 % ID/g
Organ distribution, Muscle (LNCaP tumor xenografts; [2]): 0.90 ± 0.01 % ID/g
Organ distribution, Spleen (LNCaP tumor xenografts; [2]): 17.88 ± 4.53 % ID/g
Organ distribution, LNCaP tumor (LNCaP tumor xenografts; n = 5): 8.22 ± 1.78 % ID/g
Changes in size exclusion chromatography (apo-transferrin): no changes in size exclusion chromatography were detected

Reference: paper PMC3502552, “A dimerized urea-based inhibitor of the prostate-specific membrane antigen for ^68Ga-PET imaging of prostate cancer” (EJNMMI Research, 2012)
